Holding throughout (test): NCI anticancer screen, dose series, 48 h
For test [1], the system named is SF-268 CNS.
The subject of test [2] is SNB-19 CNS.
Test [3] deals with HOP-92 NSCLC.
For test [4], the system named is M14 melanoma.
Test [5] deals with PC-3 prostate.
In test [6] the test system is HT29 colon.
Test [7] deals with SK-MEL-28 melanoma.
The test system of test [8] is IGROV1 ovarian.
The test system of test [9] is COLO 205 colon.
Test [10] deals with LOX IMVI melanoma.

The values that follow come from PubChem BioAssay (NCI).

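1) Cells in 96-well plates. 2) Compound, 48 h, 5 concentrations. 3) Linear interpolation between surrounding doses. 4) Unreached endpoint = highest concentration. At the GI50, growth is halved. TGI: concentration producing complete growth inhibition.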

As to `Cc1cc2c(C(N)=O)cccc2n1-c1nc2c(c(NCc3ccccc3)n1)CCCN2`, the GI50 is 213 nM in test [1]; 296 nM in [2]; 261 nM in test [3]; 212 nM in [4]; 287 nM in test [5]; 215 nM in [6]. The GI50 in test [7] is 246 nM; in [8], 194 nM; in test [9] it was 195 nM; in test [10], 51.7 nM. Moreover, the TGI in [1] came to 487 nM; in test [2] it was 765 nM; in [3] it was 541 nM; in test [4], 432 nM; in test [5] it was 825 nM; in test [6], 485 nM. For the same molecule, the TGI is 593 nM in [7], 439 nM in test [8], 364 nM in [9] and 206 nM in [10].

For `C=C1C(=O)O[C@@H]2C[C@@H](C)[C@@H]3[C@@H](OC4OC(COC(C)=O)C(O)C(O)C4O)CC(=O)[C@@]3(C)C[C@H]12` (stereo partly drawn), the TGI in [1] worked out at 44700 nM; in [2], 45100 nM; in test [3] it was 2150 nM; in test [4] it was 2850 nM; in [5] it was 23700 nM; in test [6] it was 2930 nM. Further, the TGI in test [7] came out at 6270 nM; in [8], 6200 nM; in [9], 1880 nM; in [10], 1780 nM.

In the case of `Clc1cc(Cl)cc(N2N=C(c3cccc(Nc4ccncc4)c3)CC2c2ccc(Br)cc2)c1` (stereo not drawn), the GI50 in test [1] is 1760 nM; in [2] it was 1630 nM; in test [3], 1480 nM; in [4], 1800 nM; in test [5] it was 1660 nM; in test [6], 1870 nM. Further, the GI50 was 1830 nM in test [7], 1740 nM in test [8], 1820 nM in test [9] and 1700 nM in [10]. Besides, the TGI came out at 3580 nM in [1]; 3160 nM in test [2]; 2940 nM in [3]; 3630 nM in test [4]; 3310 nM in test [5]; 3660 nM in test [6]. For the same molecule, the TGI in test [7] came to 3370 nM; in test [8], 3300 nM; in [9], 3860 nM; in [10], 3060 nM.

In the case of `COc1cccc(/C=C/C(=O)c2cc3c(N)c(C(=O)Nc4cccc(Cl)c4C)sc3nc2C)c1`, the GI50 is 1570 nM in [1]; 1290 nM in test [2]; 1040 nM in [3]; 1020 nM in test [4]; 1430 nM in [5]; 418 nM in [6]. Moreover, the GI50 was 1260 nM in test [7], 832 nM in test [8], 1380 nM in test [9] and 676 nM in test [10]. Also, the TGI in test [1] turned out to be 14400 nM; in [2], 6180 nM; in [3], 3160 nM; in [4], 2780 nM; in test [5], 7340 nM; in [6], 2410 nM. For the same molecule, the TGI in test [7] was 4700 nM; in test [8], 1850 nM; in [9], 3630 nM; in test [10], 1450 nM.

`Cc1cc(N/N=C/c2nc(-c3ccccc3)oc2C)c2cc(Cl)ccc2n1`: the GI50 in [2] is 2120 nM; in [3] it was 1430 nM; in test [4], 1830 nM; in test [5], 1800 nM; in test [6] it was 1820 nM; in test [7] it was 1710 nM. For the same molecule, the figures for the GI50 in test [8] and in test [9] were 1680 nM and 1800 nM, respectively. In addition, the TGI in test [2] turned out to be 4860 nM; in test [3], 2870 nM; in test [4] it was 3540 nM; in [5] it was 3550 nM; in test [6] it was 3590 nM; in test [7], 3160 nM. For the same molecule, the TGI in test [8] came to 3320 nM; in test [9], 3660 nM.

In the case of `c1ccc2[nH]c(-c3ccc(OCCCCCOc4ccc(-c5nc6ccccc6[nH]5)cc4)cc3)nc2c1`, the GI50 in [2] was 5970 nM; in [3] it was 3840 nM; in test [4], 1730 nM; in [5], 2760 nM; in [6], 629 nM; in test [7], 394 nM. Besides, the GI50 in test [9] is 7830 nM; in test [10], 1220 nM. Further, the TGI in test [2] was greater than 28400 nM; in [3], 10100 nM; in test [4], 4310 nM; in [5], 8050 nM; in [6], 2750 nM; in test [7] it was 903 nM. The TGI in [9] was greater than 34500 nM; in [10] it was 2570 nM.

Turning to `O=C(Nc1ccc(Nc2ccncc2)cc1)c1ccc(Nc2ccnc3ccc([N+](=O)[O-])cc23)cc1`, the GI50 in [1] was 29900 nM; in test [2], greater than 100000 nM; in [3] it was greater than 100000 nM; in test [4], greater than 100000 nM; in test [5] it was greater than 100000 nM; in test [6] it was greater than 100000 nM. The figures for the GI50 in test [7], in test [9] and in test [10] were 63800 nM, greater than 100000 nM and greater than 100000 nM, respectively. Also, the TGI in test [1], in test [2], in test [3], in [4], in [5] and in [6] was greater than 100000 nM in each case. In addition, the TGI in test [7], in test [9] and in test [10] was greater than 100000 nM throughout.

Regarding `C=C(CN1CCN(c2ccccc2F)CC1)c1ccc(C(=O)Nc2ccccc2N)cc1`, the GI50 was 2360 nM in test [1]; 3740 nM in test [2]; 611 nM in [3]; 1210 nM in test [5]; 1190 nM in test [6]; 2570 nM in test [7]. Moreover, the figures for the GI50 in test [8], in test [9] and in [10] were 571 nM, 2670 nM and 1530 nM, respectively. Moreover, the TGI is greater than 100000 nM in test [1]; greater than 100000 nM in test [2]; 5550 nM in test [3]; 4010 nM in [5]; 4370 nM in [6]; 53900 nM in test [7]. In addition, the TGI came to 4960 nM in [8], 11100 nM in test [9] and 24400 nM in test [10].
